“And” between values parts separate entries of the source, which are not always exact repeats. Identical values can stand only once. Where a SMILES comes first, the peptide text is derived from it. [ ]: non-standard residue; d: D form. Hyp = O=C(O)[C@@H]1C[C@@H](O)CN1
Legend:
[1] = test system: IL-6 cytokine release in poly I:C stimulated primary human corneal epithelial cells; assay: Soluble IL-6 cytokine release in poly I:C stimulated primary human corneal epithelial cells by ELISA (Example 6); type: cell-based
Description: To determine the effect of compound by assessing the soluble IL-6 cytokine release in poly I:C stimulated primary human corneal epithelial cells by ELISA. • Test System: Primary Human Corneal Epithelial cells • Assay Format: 96-well plate format • Method of Detection: Enzyme-linked immunosorbent assay • Assay Controls: Hinokitiol Assay protocol as shown below was used to determine the significant effect of test compounds. The data was statistically analyzed by one-way ANOVA with a Bonferroni post test comparing all the columns. The significance was represented by the p value.

IL-10 = assay: Example 8 main study Luminex, LPS hPBMCs: IL-10; type: cell-based, human; details: for IL-10 Concentration: individual replicates; for IL-10 Concentration (pg/ml), Mean: mean of replicates; for LPS-induced IL-10 (in words): at as low as 5 μM, LPS 5 ug/mL 24 hrs
Protocol: (§1) Human PBMCs were pretreated with YY-101, YDE-011, YDE-043 or reference compound; Xiidra® at various concentration (ranging from […] to 500 nM) for 2 h before stimulation. An equal volume of 0.5% DMSO was used as a vehicle control. Then, the cells were treated with LPS at 5 ug/ml, which was selected based on the pilot study. The supernatants from treated cells were harvested at 24 h and placed in a 96 well for Luminex cytokine & chemokine profiling using a Luminex 200 multiplex assay (Luminex; R&D system, USA).
(§2) The main study arm with triplicate wells per group in a 24-well plate: • 1. Blank • 2. PBMC: 0.5% DMSO • 3. PBMC+LPS (5 ug/ml) • 4. PBMC+YY-101 500 nM • 5. PBMC+YY-101 50 nM • 6. PBMC+YY-101 5 nM • 7. PBMC+YY-101 0.5 nM • 8. PBMC+LPS (5 ug/ml)+Xiidra® 500 nM • 9. PBMC+LPS (5 ug/ml)+Xiidra® 50 nM • 10. PBMC+LPS (5 ug/ml)+Xiidra® 5 nM • 11. PBMC+LPS (5 ug/ml)+Xiidra® 0.5 nM • 12. PBMC+LPS (5 ug/ml)+Xiidra® 0.05 nM • 13. PBMC+LPS (5 ug/ml)+Xiidra® 0.005 nM • 14. PBMC+LPS (5 ug/ml)+YY-101 500 nM • 15. PBMC+LPS (5 ug/ml)+YY-101 50 nM • 16. PBMC+LPS (5 ug/ml)+YY-101 5 nM • 17. PBMC+LPS (5 ug/ml)+YY-101 0.5 nM • 18. PBMC+LPS (5 ug/ml)+YY-101 0.05 nM • 19. PBMC+LPS (5 ug/ml)+YY-101 0.005 nM • 20. PBMC+LPS (5 ug/ml)+YDE-011 500 nM • 21. PBMC+LPS (5 ug/ml)+YDE-011 50 nM • 22. PBMC+LPS (5 ug/ml)+YDE-011 5 nM • 23. PBMC+LPS (5 ug/ml)+YDE-011 0.5 nM • 24. PBMC+LPS (5 ug/ml)+YDE-011 0.05 nM • 25. PBMC+LPS (5 ug/ml)+YDE-011 0.005 nM • 26. PBMC+LPS (5 ug/ml)+YDE-043 500 nM • 27. PBMC+LPS (5 ug/ml)+YDE-043 50 nM • 28. PBMC+LPS (5 ug/ml)+YDE-043 5 nM • 29. PBMC+LPS (5 ug/ml)+YDE-043 0.5 nM • 30. PBMC+LPS (5 ug/ml)+YDE-043 0.05 nM • 31. PBMC+LPS (5 ug/ml)+YDE-043 0.005 nM
(§3) Multiplex assay was used to measure 30 cytokines and chemokines. The 1:200 diluted cell supernatant and serial dilution of the standard were dispensed into a 96 well plate at 50 ul/well. Then, the pre-mixed cocktail of antibody-coated magnetic beads was dispensed at 50 ul/well and incubated at room temperature for 2 h in a horizontal orbital microplate shaker at 800±500 rpm. The beads were washed using a magnetic device to prevent loss. The biotin-antibody was dispensed in 50 ul of each well and incubated at room temperature for 1 h in a shaker at 800±500 rpm. After washing, streptavidin-PE was added at 50 ul/well and incubated at room temperature for 30 min in a shaker under the same conditions. Finally, after washing, wash buffer (100 ul/well) was added to the plate and incubated in a shaker for 2 min. The Luminex™ 200 setting were set according to the manufacturer's protocol. The data was calculated with a standard five-parameter logistic nonlinear regression analysis of the data (xPonent software 4.2, USA). Results were presented as concentration (ng/ml or pg/ml).

IL-2 = assay: Example 8 main study Luminex, LPS hPBMCs: IL-2; type: cell-based, human; details: for IL-2 Concentration, individual wells / IL-2 MFI, individual wells / IL-2 MFI, Mean / IL-2 Concentration, Mean: 24 h; for IL-2 MFI, Mean: LPS alone Mean 80.5; for IL-2 Concentration, Mean: LPS alone Mean 3988.7; for LPS-induced IL-2 (in words): at as low as 5 μM, LPS 5 ug/mL 24 hrs
Protocol: as §1, §2, §3

[2] = PBMC + LPS(5 ug/ml) + test article 0.005 nM
[3] = PBMC + LPS(5 ug/ml) + test article 0.05 nM
[4] = PBMC + LPS(5 ug/ml) + test article 0.5 nM
[5] = PBMC + LPS(5 ug/ml) + test article 5 nM
[6] = PBMC + LPS(5 ug/ml) + test article 50 nM
[7] = PBMC + LPS(5 ug/ml) + test article 500 nM
[8] = PBMC + LPS(5 ug/ml) + compound 0.005 nM
[9] = PBMC + LPS(5 ug/ml) + compound 0.05 nM
[10] = PBMC + LPS(5 ug/ml) + compound 0.5 nM
[11] = PBMC + LPS(5 ug/ml) + compound 5 nM
[12] = PBMC + LPS(5 ug/ml) + compound 50 nM
[13] = PBMC + LPS(5 ug/ml) + compound 500 nM

Compound | Poly I:C induced IL-6 cytokine release (in words) [1] | tested concentrations with significant attenuation of IL-6 cytokine release [1] | IL-10 Concentration (IL-10; [2]) | IL-10 Concentration (pg/ml), Mean (IL-10; [2]) | IL-10 Concentration (IL-10; [3]) | IL-10 Concentration (pg/ml), Mean (IL-10; [3]) | IL-10 Concentration (IL-10; [4]) | IL-10 Concentration (pg/ml), Mean (IL-10; [4]) | IL-10 Concentration (IL-10; [5]) | IL-10 Concentration (pg/ml), Mean (IL-10; [5]) | IL-10 Concentration (IL-10; [6]) | IL-10 Concentration (pg/ml), Mean (IL-10; [6]) | IL-10 Concentration (IL-10; [7]) | IL-10 Concentration (pg/ml), Mean (IL-10; [7]) | LPS-induced IL-10 (in words) (IL-10) | IL-2 Concentration, individual wells (IL-2; [8]) | IL-2 MFI, individual wells (IL-2; [8]) | IL-2 MFI, Mean (IL-2; [8]) | IL-2 Concentration, Mean (IL-2; [8]) | IL-2 Concentration, individual wells (IL-2; [9]) | other results
CC(C)C[C@H](NC(=O)[C@H](CCC(N)=O)NC(=O)CNC(=O)[C@@H]1C[C@@H](O)CN1)C(=O)NCC(=O)O [YDE-043] (H-[Hyp]GQLG-OH; N-terminus and C-terminus assumed) | attenuate Poly I:C induced of IL-6 cytokine release in a dose dependent manner | 30 μM, 10 μM, 1 μM and 0.1 μM | 651.0 pg/mL and 806.6 pg/mL and 1134.2 pg/mL | 863.9 pg/mL | 436.9 pg/mL and 518.2 pg/mL and 381.9 pg/mL | 445.7 pg/mL | 436.9 pg/mL and 491.3 pg/mL and 624.7 pg/mL | 517.6 pg/mL | 545.0 pg/mL and 637.8 pg/mL and 558.4 pg/mL | 580.4 pg/mL | 571.7 pg/mL and 598.2 pg/mL and 518.2 pg/mL | 562.7 pg/mL | 464.2 pg/mL and 545.0 pg/mL and 436.9 pg/mL | 482.0 pg/mL | significantly reduced | 2239.1 pg/mL and 2317.3 pg/mL and 3058.1 pg/mL | 58.0 and 59.0 and 68.5 | 61.8 | 2538.2 pg/mL | 2004.2 pg/ml and 2239.1 pg/ml (2×) | IL-2 MFI, individual wells (IL-2; [9]): 55.0 and 58.0 (2×); IL-2 MFI, Mean (IL-2; [9]): 57.0; IL-2 Concentration, Mean (IL-2; [9]): 2160.8 pg/mL; IL-2 Concentration, individual wells (IL-2; [10]): 2082.5 pg/mL and 2317.3 pg/mL and 2121.7 pg/mL; IL-2 MFI, individual wells (IL-2; [10]): 56.0 and 59.0 and 56.5; IL-2 MFI, Mean (IL-2; [10]): 57.2; IL-2 Concentration, Mean (IL-2; [10]): 2173.8 pg/mL; IL-2 Concentration, individual wells (IL-2; [11]): 2785.6 pg/mL and 2395.5 pg/mL and 2473.6 pg/mL; IL-2 MFI, individual wells (IL-2; [11]): 65.0 and 60.0 and 61.0; IL-2 MFI, Mean (IL-2; [11]): 62.0; IL-2 Concentration, Mean (IL-2; [11]): 2551.6 pg/mL; IL-2 Concentration, individual wells (IL-2; [12]): 2551.7 pg/mL and 2395.5 pg/mL and 2239.1 pg/mL; IL-2 MFI, individual wells (IL-2; [12]): 62.0 and 60.0 and 58.0; IL-2 MFI, Mean (IL-2; [12]): 60.0; IL-2 Concentration, Mean (IL-2; [12]): 2395.4 pg/mL; IL-2 Concentration, individual wells (IL-2; [13]): 2004.2 pg/mL and 2082.5 pg/mL and 2239.1 pg/mL; IL-2 MFI, individual wells (IL-2; [13]): 55.0 and 56.0 and 58.0; IL-2 MFI, Mean (IL-2; [13]): 56.3; IL-2 Concentration, Mean (IL-2; [13]): 2108.6 pg/mL; LPS-induced IL-2 (in words) (IL-2): significantly reduced
CC(C)C[C@H](NC(=O)CNC(=O)[C@H](CC(C)C)NC(=O)[C@H](CCC(N)=O)NC(=O)CNC(=O)[C@@H]1C[C@@H](O)CN1)C(=O)N[C@@H](C)C(=O)NCC(=O)N1CCC[C@H]1C(=O)N[C@@H](CCCCN)C(=O)O [YDE-011] (H-[Hyp]GQLGLAGPK-OH) | attenuate Poly I:C induced of IL-6 cytokine release in a dose dependent manner | 30 μM, 10 μM, 1 μM and 0.1 μM | 624.7 pg/mL and 409.5 pg/mL and 531.7 pg/mL | 521.9 pg/mL | 729.2 pg/mL and 611.5 pg/mL and 651.0 pg/mL | 663.9 pg/mL | 409.5 pg/ml (2×) and 297.6 pg/ml | 372.2 pg/mL | 181.1 pg/mL and 210.8 pg/mL and 381.9 pg/mL | 257.9 pg/mL | 518.2 pg/mL and 845.0 pg/mL and <2.59 pg/mL | 681.6 pg/mL | 883.3 pg/mL and <2.59 pg/mL and 225.5 pg/mL | 554.4 pg/mL | significantly reduced | 2239.1 pg/mL and 2082.5 pg/mL and 2707.7 pg/mL | 58.0 and 56.0 and 64.0 | 59.3 | 2343.1 pg/mL | 2707.7 pg/mL and 2473.6 pg/mL and 2824.6 pg/mL | IL-2 MFI, individual wells (IL-2; [9]): 64.0 and 61.0 and 65.5; IL-2 MFI, Mean (IL-2; [9]): 63.5; IL-2 Concentration, Mean (IL-2; [9]): 2668.6 pg/mL; IL-2 Concentration, individual wells (IL-2; [10]): 2239.1 pg/mL and 1925.7 pg/mL and 2200.0 pg/mL; IL-2 MFI, individual wells (IL-2; [10]): 58.0 and 54.0 and 57.5; IL-2 MFI, Mean (IL-2; [10]): 56.5; IL-2 Concentration, Mean (IL-2; [10]): 2121.6 pg/mL; IL-2 Concentration, individual wells (IL-2; [11]): 1532.6 pg/mL and 1611.3 pg/mL and 2551.7 pg/mL; IL-2 MFI, individual wells (IL-2; [11]): 49.0 and 50.0 and 62.0; IL-2 MFI, Mean (IL-2; [11]): 53.7; IL-2 Concentration, Mean (IL-2; [11]): 1898.5 pg/mL; IL-2 Concentration, individual wells (IL-2; [12]): 2160.8 pg/mL and 659.4 pg/mL and 2082.5 pg/mL; IL-2 MFI, individual wells (IL-2; [12]): 57.0 and 38.0 and 56.0; IL-2 MFI, Mean (IL-2; [12]): 50.3; IL-2 Concentration, Mean (IL-2; [12]): 1634.3 pg/mL; IL-2 Concentration, individual wells (IL-2; [13]): 2941.4 pg/mL and 579.2 pg/mL and 1729.4 pg/mL; IL-2 MFI, individual wells (IL-2; [13]): 67.0 and 37.0 and 51.5; IL-2 MFI, Mean (IL-2; [13]): 51.8; IL-2 Concentration, Mean (IL-2; [13]): 1750.0 pg/mL; LPS-induced IL-2 (in words) (IL-2): significantly reduced
